Data reported in US8754242B2, “Herbicides” (Syngenta Crop Protection LLC, priority 2007, dated 2014).

Legend:
Assay type in all cases: in vivo
[1] = system: Alopecurus myosuroides (ALOMY); assay: Test Example 1 pre-emergence herbicidal activity; details: Alopecurus myosuroides, 480 h, rate 250 g/ha, evaluated 20 days later, read-out: Pre-emergence activity ALOMY (100=total damage to plant; 0=no damage to plant)
Protocol: (§1) Monocotyledonous and dicotyledonous test plants were sown in standard soil in pots. After cultivation for one day (pre-emergence) or after 10 days cultivation (post-emergence) under controlled conditions in a glasshouse, the plants were sprayed with an aqueous spray solution derived from the formulation of the technical active ingredient in 0.6 ml acetone and 45 ml formulation solution containing 10.6% Emulsogen EL (Registry number 61791-12-6), 42.2% N-methylpyrrolidone, 42.2% dipropylene glycol monomethyl ether (Registry number 34590-94-8) and 0.2% X-77 (Registry number 11097-66-8). The test plants were then grown in a greenhouse under optimum conditions until, 15 days later for post-emergence and 20 days for pre-emergence, the test was evaluated (100=total damage to plant; 0=no damage to plant).
(§2) Alopecurus myosuroides (ALOMY), Avena fatua (AVEFA), Lolium perenne (LOLPE), Setaria faberi (SETFA), Digitaria sanguinalis (DIGSA), Echinochloa crus-galli (ECHCG)

Avena fatua (AVEFA) [2] = assay: Test Example 1 pre-emergence herbicidal activity; details: Avena fatua, 480 h, rate 250 g/ha, evaluated 20 days later, read-out: Pre-emergence activity AVEFA (100=total damage to plant; 0=no damage to plant)
Protocol: as §1, §2

[3] = system: Digitaria sanguinalis (DIGSA); assay: Test Example 1 pre-emergence herbicidal activity; details: Digitaria sanguinalis, 480 h, rate 250 g/ha, evaluated 20 days later, read-out: Pre-emergence activity DIGSA (100=total damage to plant; 0=no damage to plant)
Protocol: as §1, §2

[4] = system: Echinochloa crus-galli (ECHCG); assay: Test Example 1 pre-emergence herbicidal activity; details: Echinochloa crus-galli, 480 h, rate 250 g/ha, evaluated 20 days later, read-out: Pre-emergence activity ECHCG (100=total damage to plant; 0=no damage to plant)
Protocol: as §1, §2

Lolium perenne (LOLPE) [5] = assay: Test Example 1 pre-emergence herbicidal activity; details: Lolium perenne, 480 h, rate 250 g/ha, evaluated 20 days later, read-out: Pre-emergence activity LOLPE (100=total damage to plant; 0=no damage to plant)
Protocol: as §1, §2

Setaria faberi (SETFA) [6] = assay: Test Example 1 pre-emergence herbicidal activity; details: Setaria faberi, 480 h, rate 250 g/ha, evaluated 20 days later, read-out: Pre-emergence activity SETFA (100=total damage to plant; 0=no damage to plant)
Protocol: as §1, §2

[7] = system: Alopecurus myosuroides (ALOMY); assay: Test Example 1 post-emergence herbicidal activity; details: 360 h, rate 125 g/ha, evaluated 15 days later, read-out: Post-emergence activity ALOMY (100=total damage to plant; 0=no damage to plant)
Protocol: as §1, §2

Avena fatua (AVEFA) [8] = assay: Test Example 1 post-emergence herbicidal activity; details: 360 h, rate 125 g/ha, evaluated 15 days later, read-out: Post-emergence activity AVEFA (100=total damage to plant; 0=no damage to plant)
Protocol: as §1, §2

[9] = system: Digitaria sanguinalis (DIGSA); assay: Test Example 1 post-emergence herbicidal activity; details: 360 h, rate 125 g/ha, evaluated 15 days later, read-out: Post-emergence activity DIGSA (100=total damage to plant; 0=no damage to plant)
Protocol: as §1, §2

[10] = system: Echinochloa crus-galli (ECHCG); assay: Test Example 1 post-emergence herbicidal activity; details: 360 h, rate 125 g/ha, evaluated 15 days later, read-out: Post-emergence activity ECHCG (100=total damage to plant; 0=no damage to plant)
Protocol: as §1, §2

Lolium perenne (LOLPE) [11] = assay: Test Example 1 post-emergence herbicidal activity; details: 360 h, rate 125 g/ha, evaluated 15 days later, read-out: Post-emergence activity LOLPE (100=total damage to plant; 0=no damage to plant)
Protocol: as §1, §2

Setaria faberi (SETFA) [12] = assay: Test Example 1 post-emergence herbicidal activity; details: 360 h, rate 125 g/ha, evaluated 15 days later, read-out: Post-emergence activity SETFA (100=total damage to plant; 0=no damage to plant)
Protocol: as §1, §2

SMILES	pest or weed control at 250 g/ha [1]	pest or weed control at 250 g/ha (Avena fatua (AVEFA) [2])	pest or weed control at 250 g/ha [3]	pest or weed control at 250 g/ha [4]	pest or weed control at 250 g/ha (Lolium perenne (LOLPE) [5])	pest or weed control at 250 g/ha (Setaria faberi (SETFA) [6])	pest or weed control at 125 g/ha [7]	pest or weed control at 125 g/ha (Avena fatua (AVEFA) [8])	pest or weed control at 125 g/ha [9]	pest or weed control at 125 g/ha [10]	pest or weed control at 125 g/ha (Lolium perenne (LOLPE) [11])	pest or weed control at 125 g/ha (Setaria faberi (SETFA) [12])
Cc1cc(C)c(C2=C(O)[C@@H]3[C@@H]4O[C@@H](C[C@H]4c4ccc(C#N)cc4)[C@@H]3C2=O)c(C)c1 [Example T93]	40%	30%	30%	0%	20%	30%	60%	80%	100%	100%	60%	100%
CCc1cc(C)cc(CC)c1C1=C(O)[C@@H]2[C@@H]3O[C@@H](C[C@H]3c3ccc([N+](=O)[O-])cc3Cl)[C@@H]2C1=O [Example T167]	30%	40%	30%	50%	40%	0%	80%	50%	70%	100%	50%	70%
CSC[C@]12C=C[C@H](O1)[C@@H]1C(=O)C(c3c(C)cc(C)cc3C)=C(O)[C@@H]12 (racemic) [Example T41]	50%	30%	30%	70%	20%	60%	40%	0%	80%	80%	0%	80%
CC1=C2CCC(C)C[C@@]23O[C@@H]1C1C(=O)C(c2c(C)cc(C)cc2C)=C(O)C13 (stereo partly drawn) [Example T60]	0%	40%	30%	30%	10%	10%	10%	0%	50%	0%	0%	40%
CCc1cc(C)cc(CC)c1C1=C(O)[C@@H]2[C@@H]3O[C@@H](C[C@H]3c3ccc(C(C)=O)cc3)[C@@H]2C1=O [Example T171]	30%	0%	40%	70%	10%	70%	70%	60%	80%	100%	20%	90%
Cc1cc(C)c(C2=C(OC(=O)OC(C)C)[C@H]3[C@@H](C2=O)[C@@H]2CC[C@H]3O2)c(C)c1 (racemic) [Example P4]	100%	100%	90%	90%	100%	70%	100%	90%	80%	100%	100%	90%
CCc1cc(C)cc(CC)c1C1=C(O)[C@@H]2[C@@H]3O[C@@H](C[C@H]3c3cc(F)cc(F)c3)[C@@H]2C1=O [Example T173]	90%	70%	70%	70%	100%	60%	100%	90%	70%	100%	90%	90%
C=CCC(=O)OC1=C(c2c(CC)cc(C)cc2CC)C(=O)[C@@H]2[C@H]1[C@H]1CC[C@@H]2O1 [Example P23]	80%	90%	100%	100%	100%	100%	100%	90%	70%	100%	90%	80%
CC[C@@H]1C[C@@H]2O[C@H]1[C@H]1C(O)=C(c3c(C)cc(C)cc3C)C(=O)[C@H]12 [Example T106]	90%	90%	100%	100%	100%	100%	90%	80%	80%	100%	80%	90%
CCc1cc(C)cc(CC)c1C1=C(O)[C@@H]2[C@@H]3O[C@@H](C[C@H]3c3ccc(C#N)cc3)[C@@H]2C1=O [Example T160]	30%	50%	40%	40%	40%	70%	90%	90%	100%	100%	70%	100%
Cc1cc(C)c(C2=C(O)[C@H]3[C@@H](C2=O)[C@]2(C)C=C[C@@]3(C)O2)c(C)c1 [Example T34]	70%	30%	60%	40%	60%	80%	40%	30%	80%	80%	30%	80%
Cc1cc(C)c(C2=C(O)[C@@H]3[C@@H]4O[C@@H](C[C@H]4c4ccc(F)nc4)[C@@H]3C2=O)c(C)c1 [Example T129]	100%	90%	90%	100%	90%	100%	80%	80%	80%	100%	70%	100%
CCc1cc(C)cc(CC)c1C1=C(O)[C@@H]2[C@@H]3O[C@@H](C[C@H]3c3cccc(C)c3)[C@@H]2C1=O [Example T179]	70%	60%	60%	70%	80%	10%	80%	80%	50%	70%	80%	10%
